Source: patent US20220347175A1, “PYRIDAZINONE DERIVATIVE” (Sumitomo Dainippon Pharma Co., Ltd., priority 2018, published 2022)
Each block holds one molecule with its values, some of them ahead of it.

Legend:
[1] = target: T1, human Nav1.1 (Homo sapiens, UniProt P35498); test: Amplification of Nav1.1-derived voltage-dependent sodium current (Nav1.1 current), cell line stably expressing human Nav1.1, automated patch clamp; assay type: cell-based; details: for activation at 1 µM / activation at 10 µM / activation at 3 µM: read-out: Nav1.1 current amplification rate (%)
T1 construct: host or cells: HEK293
Summary of the method: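 Amplification rate (%) is 100 × post-compound/pre-compound Nav1.1 peak current or AUC, minus 100. Ramp-evoked sodium currents were recorded by automated patch clamp in a human Nav1.1 HEK293 stable line, restricted to cells exceeding 500 pA, with compounds added in extracellular solution containing 1% DMSO.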

[2] = target: T2, human Nav1.5 (Homo sapiens, UniProt Q14524); test: Amplification of Nav1.5-derived voltage-dependent sodium current (Nav1.5 current), cell line stably expressing human Nav1.5, automated patch clamp; assay type: cell-based; details: for activation at 1 µM / activation at 10 µM / activation at 3 µM: read-out: Nav1.5 current amplification rate (%)
T2 construct: expressed in transfected cells; host or cells: CHO-K1 (T-REx System, ThermoFisher Scientific)
T2 sequence (Q14524 1-2015 isoform Q14524-2): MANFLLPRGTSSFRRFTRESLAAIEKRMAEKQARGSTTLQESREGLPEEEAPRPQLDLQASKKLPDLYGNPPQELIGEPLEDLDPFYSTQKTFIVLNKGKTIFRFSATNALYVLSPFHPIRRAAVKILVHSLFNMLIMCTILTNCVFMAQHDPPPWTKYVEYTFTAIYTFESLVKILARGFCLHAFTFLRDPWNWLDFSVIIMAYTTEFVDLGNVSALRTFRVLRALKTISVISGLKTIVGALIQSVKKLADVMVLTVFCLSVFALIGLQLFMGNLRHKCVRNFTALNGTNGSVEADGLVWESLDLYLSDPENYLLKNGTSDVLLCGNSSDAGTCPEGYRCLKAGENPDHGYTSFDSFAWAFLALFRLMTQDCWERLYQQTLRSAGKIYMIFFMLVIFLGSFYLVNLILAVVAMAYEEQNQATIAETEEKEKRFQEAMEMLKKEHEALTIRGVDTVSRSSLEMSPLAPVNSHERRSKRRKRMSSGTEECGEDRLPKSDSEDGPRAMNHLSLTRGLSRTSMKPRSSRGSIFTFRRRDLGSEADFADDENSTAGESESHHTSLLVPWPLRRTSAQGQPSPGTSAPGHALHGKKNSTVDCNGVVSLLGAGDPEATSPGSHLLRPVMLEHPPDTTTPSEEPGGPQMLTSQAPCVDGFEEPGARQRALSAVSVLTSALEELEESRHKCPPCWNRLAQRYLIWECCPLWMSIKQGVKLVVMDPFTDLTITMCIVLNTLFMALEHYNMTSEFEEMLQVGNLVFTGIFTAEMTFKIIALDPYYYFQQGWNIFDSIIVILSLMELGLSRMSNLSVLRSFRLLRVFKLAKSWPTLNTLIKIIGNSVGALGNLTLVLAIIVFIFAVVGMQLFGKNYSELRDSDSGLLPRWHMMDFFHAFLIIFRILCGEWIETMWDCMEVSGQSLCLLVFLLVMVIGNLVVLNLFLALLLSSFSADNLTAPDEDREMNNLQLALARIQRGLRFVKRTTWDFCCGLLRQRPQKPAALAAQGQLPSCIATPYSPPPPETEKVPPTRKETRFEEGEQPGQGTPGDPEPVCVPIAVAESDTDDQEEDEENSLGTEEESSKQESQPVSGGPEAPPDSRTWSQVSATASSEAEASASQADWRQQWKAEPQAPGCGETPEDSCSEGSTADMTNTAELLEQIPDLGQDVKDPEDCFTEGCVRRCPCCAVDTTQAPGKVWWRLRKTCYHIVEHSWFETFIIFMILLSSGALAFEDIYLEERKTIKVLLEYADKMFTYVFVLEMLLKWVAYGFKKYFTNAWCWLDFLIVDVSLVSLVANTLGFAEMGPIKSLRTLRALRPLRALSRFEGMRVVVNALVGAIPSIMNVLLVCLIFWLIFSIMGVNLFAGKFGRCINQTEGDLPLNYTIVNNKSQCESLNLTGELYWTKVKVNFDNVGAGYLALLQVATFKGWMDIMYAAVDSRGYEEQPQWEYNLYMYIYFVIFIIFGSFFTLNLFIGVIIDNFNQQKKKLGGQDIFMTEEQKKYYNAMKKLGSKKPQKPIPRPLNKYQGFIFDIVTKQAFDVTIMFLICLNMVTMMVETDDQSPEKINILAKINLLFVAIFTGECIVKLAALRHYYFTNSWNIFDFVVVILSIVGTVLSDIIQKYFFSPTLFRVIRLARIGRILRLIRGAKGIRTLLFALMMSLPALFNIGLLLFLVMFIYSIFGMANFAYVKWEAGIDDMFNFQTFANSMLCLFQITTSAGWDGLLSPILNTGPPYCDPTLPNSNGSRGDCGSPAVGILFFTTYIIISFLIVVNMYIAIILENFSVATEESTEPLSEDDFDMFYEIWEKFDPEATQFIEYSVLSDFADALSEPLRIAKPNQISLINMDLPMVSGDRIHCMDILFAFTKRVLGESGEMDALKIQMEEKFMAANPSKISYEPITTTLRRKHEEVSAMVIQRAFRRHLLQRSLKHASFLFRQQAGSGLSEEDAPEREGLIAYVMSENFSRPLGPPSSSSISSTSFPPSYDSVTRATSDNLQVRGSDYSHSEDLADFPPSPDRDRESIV

[3] = compound 1 μmol/L, HEK293 stably expressing human Nav1.1
[4] = compound 1 μmol/L, CHO-K1 stably expressing human Nav1.5
[5] = compound 3 μmol/L, HEK293 stably expressing human Nav1.1
[6] = compound 3 μmol/L, CHO-K1 stably expressing human Nav1.5
[7] = 10 μmol/L compound, change of the area under the curve of Nav1.1 current (Test Result 1)
[8] = 10 μmol/L compound, change of the area under the curve of Nav1.5 current (Test Result 1)

Structure (SMILES): CC1(C)CC=C(c2ccc(=O)n(CC(=O)Nc3ccc4ncnn4c3)n2)CC1 [Example 428, 2-[3-(4,4-dimethylcyclohex-1-en-1-yl)-6-oxopyridazin-1(6H)-yl]-N-([1,2,4]triazolo[1,5-a]pyridin-6-yl)acetamide]
activation at 1 µM [1, 3]: 109%
activation at 1 µM [2, 4]: 23%

Structure (SMILES): CC1CC=C(c2ccc(=O)n(CC(=O)N3CCc4c(CN5CC6CC5CO6)cccc43)n2)CC1 (mixture of isomers) [Example 278]
Nav1.1 current amplification rate (%) [1, 3]: 204%
Nav1.5 current amplification rate (%) [2, 4]: 27%

Structure (SMILES): COc1cc(=O)n(CC(=O)N2CCN(c3cncc(F)c3)CC2)nc1C1=CCC(C)(C)CC1 [Example 490]
Nav1.1 current amplification rate (%) [1, 7]: 469%
Nav1.5 current amplification rate (%) [2, 8]: 25%

Structure (SMILES): CC1CCN(c2ccc(=O)n(CC(=O)Nc3cncc(C(F)(F)F)c3)n2)CC1 [Example 61]
Nav1.1 current amplification rate (%) [1, 7]: 77%
Nav1.5 current amplification rate (%) [2, 8]: 8%

Structure (SMILES): O=C(Cn1nc(N2CC3C(C2)C3(F)F)ccc1=O)Nc1ccc2ocnc2c1 (stereo not shown) [Example 162]
activation at 10 µM [1, 7]: 6%
activation at 10 µM [2, 8]: 0%

Structure (SMILES): COC1CN(Cc2nc3cc(NC(=O)Cn4nc(C5=CCC(C)CC5)ccc4=O)ccc3o2)C1 (racemic) [Example 332]
Nav1.1 current amplification rate (%) [1, 5]: 15%
Nav1.5 current amplification rate (%) [2, 6]: 9%

Structure (SMILES): COc1cc(C2=CCC(C(F)(F)F)CC2)nn(CC(=O)N2CCc3c(N4CCOCC4)cccc32)c1=O (racemic) [Example 474]
Nav1.1 current amplification rate (%) [1, 7]: 235%
Nav1.5 current amplification rate (%) [2, 8]: 26%

Structure (SMILES): N#Cc1ccc(NC(=O)Cn2nc(C3=CCC(F)(F)CC3)ccc2=O)cn1 [Example 109]
activation at 10 µM [1, 7]: 57%
activation at 10 µM [2, 8]: 23%

Structure (SMILES): Cc1ncccc1N1CCN(C(=O)Cn2nc(C3=CCC(C)CC3)ccc2=O)CC1 (stereo not shown) [Example 410]
Nav1.1 current amplification rate (%) [1, 5]: 66%
Nav1.5 current amplification rate (%) [2, 6]: 10%

Structure (SMILES): CN(C)c1cc(N2CCC3(CCC3)C2)nn(CC(=O)N2CCc3c(N4CCOCC4)cccc32)c1=O [Example 222]
activation at 1 µM [1, 3]: 137%
activation at 1 µM [2, 4]: 11%

Structure (SMILES): O=C(Cn1nc(N2CCC3(CCCC3)C2)ccc1=O)Nc1ccc2scnc2c1 [Example 128]
activation at 10 µM [1, 7]: 240%
activation at 10 µM [2, 8]: 56%

Structure (SMILES): CN(C)c1cc(=O)n(CC(=O)Nc2ccc3ocnc3c2)nc1N1CCC2(CCCC2)C1 [Example 197]
activation at 10 µM [1, 7]: 318%
activation at 10 µM [2, 8]: 56%

Structure (SMILES): COc1ncc(C2=CCN(C(=O)Cn3nc(C4=CCC(C)CC4)ccc3=O)CC2)cn1 (racemic) [Example 400]
Nav1.1 current amplification rate (%) [1, 7]: 238%
Nav1.5 current amplification rate (%) [2, 8]: 24%

Structure (SMILES): CC1(C)CC=C(c2ccc(=O)n(CC(=O)N3CCC4(CCOCC4)CC3)n2)CC1 [Example 441]
Nav1.1 current amplification rate (%) [1, 7]: 30%
Nav1.5 current amplification rate (%) [2, 8]: 1%

Structure (SMILES): CC1CCN(c2ccc(=O)n(CC(=O)Nc3cncc(C#N)c3)n2)CC1 [Example 60]
Nav1.1 current amplification rate (%) [1, 7]: 57%
Nav1.5 current amplification rate (%) [2, 8]: 21%

Structure (SMILES): CC1CCN(c2ccc(=O)n(CC(=O)Nc3cccc(-c4cnc[nH]4)c3)n2)CC1 [Example 171]
activation at 3 µM [1, 5]: 2%
activation at 3 µM [2, 6]: 0%

Structure (SMILES): Cc1noc2ccc(NC(=O)Cn3nc(C4=CCC(C)CC4)ccc3=O)cc12 (stereo not shown) [Example 423]
Nav1.1 current amplification rate (%) [1, 7]: 11%
Nav1.5 current amplification rate (%) [2, 8]: 4%

Structure (SMILES): CC1CC=C(c2ccc(=O)n(CC(=O)N3CCN(c4cncc(F)c4)CC3)n2)CC1 (racemic) [Example 263]
Nav1.1 current amplification rate (%) [1, 7]: 342%
Nav1.5 current amplification rate (%) [2, 8]: 32%

Structure (SMILES): Cc1cc(NC(=O)Cn2nc(N3CCC(C)CC3)ccc2=O)cc2ncoc12 [Example 96]
Nav1.1 current amplification rate (%) [1, 7]: 105%
Nav1.5 current amplification rate (%) [2, 8]: 7%

Structure (SMILES): Cc1c(N2CCC3(CCC3)C2)nn(CC(=O)Nc2ccn3ccnc3c2)c(=O)c1C [Example 209]
activation at 10 µM [1, 7]: 179%
activation at 10 µM [2, 8]: 16%

Structure (SMILES): CC1CC=C(c2ccc(=O)n(CC(=O)Nc3ccn4cc(C5CC5)nc4c3)n2)CC1 (racemic) [Example 334]
Nav1.1 current amplification rate (%) [1, 5]: 255%
Nav1.5 current amplification rate (%) [2, 6]: 25%

Structure (SMILES): CC1CC=C(c2ccc(=O)n(CC(=O)Nc3ccn4ccnc4c3)n2)CC1 (stereo not shown) [Example 532]
activation at 10 µM [1, 7]: 239%
activation at 10 µM [2, 8]: 47%

Structure (SMILES): CC1(C)CC=C(c2ccc(=O)n(CC(=O)Nc3ccc4ocnc4c3)n2)CC1 [Example 445, N-(1,3-benzooxazol-5-yl)-2-[3-(4,4-dimethylcyclohex-1-en-1-yl)-6-oxopyridazin-1(6H)-yl]acetamide]
activation at 10 µM [1, 7]: 320%
activation at 10 µM [2, 8]: 52%

Structure (SMILES): O=C(Cn1nc(C2=CCC3(CC2)CC3(F)F)ccc1=O)N1CCN(c2cncc(C(F)(F)F)c2)CC1 (stereo not shown) [Example 509]
activation at 3 µM [1, 5]: 238%
activation at 3 µM [2, 6]: 5%

Structure (SMILES): CC1CC=C(c2ccc(=O)n(CC(=O)N3CCN(c4cnn(C)c4)CC3)n2)CC1 (stereo not shown) [Example 415]
Nav1.1 current amplification rate (%) [1, 7]: 93%
Nav1.5 current amplification rate (%) [2, 8]: 2%

More lines, main results first:

Nav1.1 current amplification rate (%) [1, 5]: 582%
Structure (SMILES): CC1(C)CC=C(c2ccc(=O)n(CC(=O)N3CCc4c(C5CN(C(=O)CO)C5)cccc43)n2)CC1 [Example 437]
Nav1.5 current amplification rate (%) [2, 6]: 194%

Nav1.1 current amplification rate (%) [1, 7]: 243%
Structure (SMILES): O=C(Cn1nc(C2=CCC(F)(F)CC2)ccc1=O)N1CCc2c(N3CCOCC3)cccc21 [Example 469]
Nav1.5 current amplification rate (%) [2, 8]: 25%

Nav1.1 current amplification rate (%) [1, 7]: 387%
Structure (SMILES): CC1CCC(c2ccc(=O)n(CC(=O)N3CCc4c(N5CCOCC5)cccc43)n2)CC1 (mixture of isomers) [Example 472]
Nav1.5 current amplification rate (%) [2, 8]: 56%

Nav1.1 current amplification rate (%) [1, 7]: 292%
Structure (SMILES): CC1(C)CC=C(c2ccc(=O)n(CC(=O)N3CCN(c4cncc(F)c4)CC3)n2)CC1 [Example 444]
Nav1.5 current amplification rate (%) [2, 8]: 10%

Nav1.1 current amplification rate (%) [1, 7]: 87%
Structure (SMILES): CC1(C)CC=C(c2ccc(=O)n(CC(=O)N3CCN(c4ccccn4)CC3)n2)CC1 [Example 439]
Nav1.5 current amplification rate (%) [2, 8]: −4%

activation at 1 µM [1, 3]: 198%
Structure (SMILES): CC1(C)CCN(c2ccc(=O)n(CC(=O)N3CCc4c(-c5ccnnc5)cccc43)n2)CC1 [Example 235]
activation at 1 µM [2, 4]: 7%

activation at 1 µM [1, 3]: 499%
Structure (SMILES): O=C(Cn1nc(C2=CCC3(CC2)CC3)ccc1=O)N1CCc2c(-c3ccnnc3)cccc21 [Example 526, 2-{2-oxo-2-[4-(pyridazin-4-yl)-2.3-dihydro-1H-indol-1-yl]ethyl}-6-(spiro[2.5]oct-5-en-6-yl)pyridazin-3(2H)one]
activation at 1 µM [2, 4]: 1%

Nav1.1 current amplification rate (%) [1, 5]: 254%
Structure (SMILES): CC1CC=C(c2ccc(=O)n(CC(=O)N3CCc4c(-c5ccn(C)n5)cccc43)n2)CC1 (racemic) [Example 252]
Nav1.5 current amplification rate (%) [2, 6]: 31%

activation at 1 µM [1, 3]: 255%
Structure (SMILES): O=C(Cn1nc(C2=CCCCC2)ccc1=O)N1CCc2c(Cn3ccnc3)cccc21 [Example 515]
activation at 1 µM [2, 4]: 287%

activation at 1 µM [1, 3]: 143%
Structure (SMILES): O=C(Cn1nc(C2=CCCC2)ccc1=O)N1CCc2c(-c3cccnc3)cccc21 [Example 524]
activation at 1 µM [2, 4]: 5%

Nav1.1 current amplification rate (%) [1, 7]: 196%
Structure (SMILES): CC1(C)CC=C(c2ccc(=O)n(CC(=O)N3CCN(c4cccnc4)CC3)n2)CC1 [Example 440]
Nav1.5 current amplification rate (%) [2, 8]: 7%

activation at 10 µM [1, 7]: 187%
Structure (SMILES): CC1CCN(c2ccc(=O)n(CC(=O)N3CCc4cc(N5CCOCC5)ccc43)n2)CC1 [Example 164]
activation at 10 µM [2, 8]: 34%

activation at 10 µM [1, 7]: 37%
Structure (SMILES): COc1ccc2c(c1)CCN2C(=O)Cn1nc(N2CCC3(CCC3)C2)ccc1=O [Example 187]
activation at 10 µM [2, 8]: 17%
